Assay [1] concerns endogenous epimorphin in HaCaT cells. In words: Reference Example 1: Western blotting of endogenous epimorphin in HaCaT cells. It counts as cell-based, human. As to conditions: 0.01 or 0.025 volume % oleic acid in DH10 medium, 3 days. As to the method:
HaCaT cells were cultured in a 5 volume % carbon dioxide atmosphere at 37° C. for 3 days in DH10 medium (Experiment No. 1), in DH10 medium containing 0.01 volume % oleic acid (Experiment No. 2), or in DH10 medium containing 0.025 volume % oleic acid (Experiment No. 3). The cultured cells were isolated and the obtained cells were dissolved in a solubilizing reagent (composition: 2 volume % SDS, 10 volume % glycerol, 5 volume % 2-mercaptoethanol, 0.008 volume % bromophenol blue, and 0.65 M tris-HCl buffer (pH about 6.8)) to obtain a cell extract. Western blotting was performed using the obtained cell extract and an anti-epimorphin antibody (produced by R & D Systems), and the relationship between oleic acid and the level of expression of endogenous epimorphin in HaCaT cells was investigated. The relationship between oleic acid and the level of expression of β-actin in HaCaT cells was also investigated in the same manner as above except that an anti-β-actin antibody was used in place of the anti-epimorphin antibody.

Assay [2] concerns secreted epimorphin in PT67-TE cell culture supernatant. In words: Reference Example 2: secreted epimorphin in PT67-TE cell culture supernatant (Western blotting). It counts as cell-based. The conditions noted are these: 0.01 or 0.025 volume % oleic acid in DH10 medium, 3 days. As to the method: (§1) The HaCaT-TE cells obtained in Production Example 1 or the PT67-TE cells obtained in Production Example 2 were cultured in DH10 medium (Experiment No. 4), in DH10 medium containing 0.01 volume % oleic acid (Experiment No. 5), or in DH10 medium containing 0.025 volume % oleic acid (Experiment No. 6) in a 5 volume % carbon dioxide atmosphere at 37° C. for 3 days. The HaCaT-TE cells obtained in Production Example 1 or the PT67-TE cells obtained in Production Example 2 were irradiated with ultraviolet light B (UVB) at a dose of 10 mJ/cm^2, and then cultured in DH10 medium in a 5 volume % carbon dioxide atmosphere at 37° C. for 3 days (Experiment No. 7). The obtained culture was centrifuged (at 1000×g for 30 minutes) to obtain a culture supernatant. Using an anti-T7 tag antibody (produced by Novagen) and protein G Sepharose beads (produced by GE Healthcare), secreted epimorphin was collected from the obtained culture supernatant. The collected secreted epimorphin was subjected to Western blotting. Using an HRP-labeled anti-T7 tag antibody (produced by Novagen), the relationship between oleic acid and the amount of secreted epimorphin in each of the HaCaT-TE cell culture supernatant and the PT67-TE cell culture supernatant was investigated.

Assay [3] relates to secreted epimorphin in HaCaT-TE cell culture supernatant. In words: Reference Example 2: secreted epimorphin in HaCaT-TE cell culture supernatant (Western blotting). The format is cell-based, human. The conditions noted are these: 0.01 or 0.025 volume % oleic acid in DH10 medium, 3 days. As to the method: as §1
(In general: A western blot detects proteins with antibodies after separation by electrophoresis.)

Assay [4] relates to HaCaT-EPM cells. In words: Test Example 3: lumen formation rate in HaCaT-EPM cell clusters in collagen gel. It counts as cell-based, human. The conditions noted are these: peptide 0.0001 mass %, cultured 4 days. As to the method:
In the following experiment, DH10 medium was used as the medium of Experimental No. 12. 1 μL of purified water was added to 1 mL of DH10 medium to obtain a medium (Experimental No. 13).
Except for using the HaCaT-EPM cells obtained in Production Example 3 in place of the HaCaT cells in Test Example 2, and the medium of Experimental No. 12, 13, 14, or 15 in place of the medium of Experimental No. 8, 9, 10, or 11 in Test Example 2, the same procedure as in Test Example 2 was performed to calculate a lumen formation rate.

The test system of assay [5] is HaCaT-EPM cells. In words: Test Example 1: effect on HaCaT-EPM cell growth (WST-1, Cell Counting Kit). The format is cell-based, human. Also noted: key to Score (growth recovery of HaCaT-EPM cells): ++: Compared to the case of using the control, significant growth recovery of HaCaT-EPM cells was detected (P≦0.01).; +: Compared to the case of using the control, significant growth recovery of HaCaT-EPM cells was detected (P≦0.05).; −: Significant growth recovery of HaCaT-EPM cells was not detected. As to conditions: peptide 0.001 mass % in DH10 medium. As to the method: The cyclic peptide compound obtained in Example 1 was added to purified water to a concentration of […] to obtain a sample. The obtained sample was then added to DH10 medium in such an amount as to achieve a concentration of the cyclic peptide compound obtained in Example 1 of 0.001 mass %. The HaCaT-EPM cells obtained in Production Example 3 were cultured in the obtained medium at 37° C. in a 5 volume % carbon dioxide atmosphere, and the cells were collected over time. After adding 110 μL of a mixture of solution B with reagent A (trade name: “WST-1, ” produced by Dojindo) (the reagent A/Solution B ratio by volume=10/1) provided with a cell counter kit (trade name: “Cell Counting Kit,” produced by Dojindo), the collected cells were incubated for 3 hours. The absorbance of the obtained mixture at 450 nm was measured using a spectrophotometer (trade name: “ARVOtmS X 1420 Multilabel Counter,” produced by Wallac), and the effect of the mixture on the HaCaT-EPM cell growth was investigated. As a control, the above procedure was repeated, except that purified water was used in place of the cyclic peptide compound obtained in Example 1, and the effect on the growth of HaCaT-EPM cells was investigated. […]
(In general: Tetrazolium assays rely on reduction of a dye to a coloured formazan, in cell work by metabolically active cells.)

The next assay relates to HaCaT cells. In words: Test Example 2: lumen formation rate in HaCaT cell clusters in collagen gel with oleic acid. The format is cell-based, human. As to conditions: oleic acid 0.05 volume %, peptide 0.0001 mass %, cultured 4 days. As to the method: In the following experiment, DH10 was used as a medium of Experimental No. 8. […] HaCaT cells were cultured in the DH10 medium at 37° C. in a 5 volume % carbon dioxide atmosphere. Next, the obtained HaCaT cells were suspended in 350 μL of DH10 medium containing 1000 U/mL DNase I (produced by Sigma Aldrich Co.). While rotating the obtained suspended solids in a 24-well dish (produced by Corning Inc., super-low adhesion surface) at 100 min^−1, gyratory culturing was performed for 24 hours at 37° C. in a 5 volume % carbon dioxide atmosphere to form a smooth, round cell aggregate. The formed cell aggregate was embedded in a high-density collagen gel prepared with a 0.5 mass % collagen solution (type IA) (produced by Koken Co., Ltd.). Next, the cell aggregate after embedding was cultured for 4 days in a 5 volume % carbon dioxide atmosphere at 37° C. in the medium of Experimental Nos. 8, 9, 10, or 11 to form a cell cluster. The morphology of the obtained cell cluster was observed by a phase-contrast microscope. In the cell cluster, the outermost layer cells maintain the undifferentiated state because they are in contact with collagen; however, in general, cells that are located inside the undifferentiated cells of the outermost layer promptly start differentiation, and undergo anoikis. […]

In assay [6] the test system is differentiated cellular architecture containing HaCaT cells. In words: Test Example 7: tissue morphology of differentiated cellular architecture containing HaCaT cells treated with oleic acid (parakeratosis). As to conditions: 5 μL 0.5 volume % oleic acid-containing ethanol solution and 5 μL sample with peptide 0.001 mass %; one day. It counts as cell-based, human. The procedure:
In the following experiment, DH10 medium was used as a medium of Experimental No. 36. 1 μL of purified water was added to 1 mL of DH10 medium to obtain a sample (Experimental No. 37). Further, the cyclic peptide compound obtained in Example 1 was added to DH10 medium to a concentration of 0.001 mass % to obtain a sample (Experimental No. 38). Furthermore, the linear peptide obtained in Comparative Example 1 was added to DH10 medium to a concentration of 0.001 mass %, to obtain a sample (Experimental No. 39). MRC-5 cells, which are human fetal lung fibroblast cells, were cultured in 10 mL of α-MEM (produced by Gibco Laboratories containing 10 mass % heat inactivated FCS at 37° C. in a 5 volume % carbon dioxide atmosphere for 72 hours. A support (produced by BD Bioscience Co., Ltd.; trade name: cell culture insert) was provided in each well of a 24 well culture plate. In the support, the MRC-5 cells and a collagen gel mixed solution (collagen type I, produced by Nitta Gelatin, Inc.) were mixed. The obtained mixture was formed into a gel to obtain a cell-embedded gel (1.7×10^5/mL). 0.05 ml of a 1 mg/mL fibronectin aqueous solution (produced by BD Biosciences was added to the upper surface of the obtained cell-embedded gel, and the cell-embedded gel was allowed to stand for 1 hour at room temperature. […]

Ends that are not written are not given here.

As for `CCCCCCCC/C=C\CCCCCCCC(=O)O` [oleic acid], the “level of expression of endogenous epimorphin in HaCaT cells” value in assay [1] was “does not substantially affect”. For the same molecule, the “secreted epimorphin in PT67-TE cell culture supernatant” value in assay [2] is reported as “not detected”. The “secreted epimorphin in HaCaT-TE cell culture supernatant” value in assay [3] is listed as “induces secretion of epimorphin”.
For SIEQSCD [Comparative Example 1], the “lumen formation rate in cell clusters” value in the assay on HaCaT-EPM cells [4] and in the assay with HaCaT cells was “low lumen formation rate” throughout. Moreover, the “growth of HaCaT-EPM cells” value in the assay on HaCaT-EPM cells [5] was “grew poorly”. In the assay on HaCaT-EPM cells [5] (compared to purified water control, absorbance at 450 nm), the “Score (growth recovery of HaCaT-EPM cells)” value is listed as “−”. The “tissue morphology of the cell construct (nucleus; parakeratosis caused by oleic acid)” value in assay [6] was “a nucleus could be observed”.

The values above are taken from patent publication US8653235B2, “Cyclic peptide compound or pharmacologically acceptable salt thereof and method for producing same” (Kwansei Gakuin Educational Foundation, priority 2010, dated 2014).
